We go through 10 compounds from patent publication US8722687B2, “Imidazo [1,2-A]pyridine derivatives as FGFR kinase inhibitors for use in therapy” (Astex Therapeutics Ltd, priority 2009, dated 2014).

One assay addresses T1, FGFR3 (Homo sapiens, UniProt P22607).
T1 construct: purchased Upstate
Kind of assay: FGFR3 in vitro kinase inhibitory activity assay. In kind it is biochemical. Conditions: read-out: FGFR3 IC50(μM) or % I.

A further assay deals with T2, VEGFR2 (Homo sapiens, UniProt P35968).
T2 construct: purchased Upstate
Kind of assay: VEGFR2 in vitro kinase inhibitory activity assay. In kind it is biochemical. Particulars: read-out: VEGFR2 IC50(μM) or % I.

In assay [1] the test system is parental wild-type Ba/F3 cells. Put plainly: Ba/F3 (WT) cell proliferation assay (Alamar Blue). In kind it is cell-based, murine. Particulars: read-out: BaF3 WT prolif. In outline: (§1)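 Ba/F3-TEL-FGFR3 cells (5×10^3/well, G418) and parental Ba/F3 (2.5×10^3/well, 2 ng/ml mouse IL-3) in RPMI/10% FBS, plated overnight, then compound for 72 h at 0.1% DMSO final. Alamar Blue 4-6 h, fluorescence 535/590 nm; IC50 where inhibition high.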
In general terms: Alamar Blue is a resazurin reagent that responds to reducing activity.

A further assay deals with T3, Ba/F3-TEL-FGFR3 cells (Homo sapiens, UniProt P22607).
T3 construct: fused on or other part: TEL (ETV6) N-terminal oligomerising part fused to the FGFR3 kinase part; P41212 (Transcription factor ETV6)
Kind of assay: Ba/F3-TEL-FGFR3 cell proliferation assay (Alamar Blue). In kind it is cell-based, murine. Particulars: 72 hours; read-out: BaF3-TEL-FGFR3 prolif. Summed up:
as §1

Assay [2] has as its system human prostate cancer PC3 cells. Kind of assay: EB1 cellular assay (Eb1 Comet assay, microtubule disruption). In kind it is cell-based. Particulars: PC-3, lowest active concentration: Eb1 foci absent in at least 50% of treated PC3 cells, 1 hour, read-out: Eb1 LAC. On the procedure:
The Eb1 Comet assay relies on the detection of the Eb1 protein at the plus end of polymerizing microtubules (Mimori-Kiyosue, 2000) using indirect immunofluorescence. Disruption of microtubule dynamics through de-polymerization or stabilization results in a de-localization of Eb1 from the growing microtubule ends and this is visualized by the disappearance of Eb1 containing cytoplasmic foci.
Briefly, human prostate cancer PC3 cells obtained from the American Type Culture Collection were grown in 96-well plates (Greiner, cat. no. 655090) in HAM's F12 medium as recommended by the provider (ATCC). The cells were treated for 1 hour at 37° C. with compounds dissolved in DMSO (0.6% final DMSO concentration). The culture medium was then removed by aspiration and the cells were fixed by adding cold methanol (−20° C.). After a 15 minutes incubation at −20° C., the cells were washed twice with DPBS (Gibco) containing 0.5% Triton X-100. Mouse Eb1 antibody (BD Transduction Laboratories, cat. no. 610534) was added to the cells (1/250 dilution in DPBS containing 1% BSA) and incubated overnight at room temperature. The antibody was subsequently removed and the cells washed twice with DPBS, 0.5% Triton X-100. Secondary goat anti-mouse antibody conjugated to Alexa 488 fluorescent dye (Molecular Probes) was added at a 1/500 dilution in DPBS, 1% BSA and incubated for 1 hour at 37° C. The cells were washed twice with DPBS, 0.5% Triton X-100 and then DPBS containing 0.5% Triton X-100 and 1/5000 Hoechst 33342 (Molecular Probes) was added. Microscopy based Eb1 foci visualization was carried out using an IN Cell Analyser 1000 (Amersham Biosciences) using a 20× objective. Compound dependent microtubule disruption was visually determined by the disappearance in Eb1 foci. The lowest active concentration (LAC) was determined as the concentration where Eb1 foci were absent in at least 50% of the treated cells. Herein the effects of test compounds are expressed as pLAC (the negative log value of the LAC-value)

T3 sequence (P22607 whole entry, change not shown, the tested form may be a part): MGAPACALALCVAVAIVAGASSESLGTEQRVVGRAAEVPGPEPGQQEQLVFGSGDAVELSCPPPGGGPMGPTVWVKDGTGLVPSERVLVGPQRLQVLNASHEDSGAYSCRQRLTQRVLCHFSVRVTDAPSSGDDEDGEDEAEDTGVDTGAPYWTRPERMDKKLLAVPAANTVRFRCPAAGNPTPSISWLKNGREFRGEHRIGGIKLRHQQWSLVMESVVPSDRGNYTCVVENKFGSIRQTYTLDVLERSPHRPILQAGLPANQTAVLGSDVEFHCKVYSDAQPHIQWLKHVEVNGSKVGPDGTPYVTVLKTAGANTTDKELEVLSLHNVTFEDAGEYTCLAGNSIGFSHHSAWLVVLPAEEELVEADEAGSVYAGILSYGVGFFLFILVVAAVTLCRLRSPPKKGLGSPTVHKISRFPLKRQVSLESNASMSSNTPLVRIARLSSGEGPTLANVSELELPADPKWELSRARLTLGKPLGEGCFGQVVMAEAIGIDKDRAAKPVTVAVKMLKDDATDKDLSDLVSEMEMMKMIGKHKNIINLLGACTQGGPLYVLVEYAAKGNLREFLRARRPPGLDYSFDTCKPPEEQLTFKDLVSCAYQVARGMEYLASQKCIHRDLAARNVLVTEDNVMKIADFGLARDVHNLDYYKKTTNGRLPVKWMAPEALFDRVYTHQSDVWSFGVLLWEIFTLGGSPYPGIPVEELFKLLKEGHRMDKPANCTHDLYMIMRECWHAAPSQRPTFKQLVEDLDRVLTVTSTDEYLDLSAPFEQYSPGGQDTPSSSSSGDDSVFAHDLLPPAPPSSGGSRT
T2 sequence (P35968 20-1356): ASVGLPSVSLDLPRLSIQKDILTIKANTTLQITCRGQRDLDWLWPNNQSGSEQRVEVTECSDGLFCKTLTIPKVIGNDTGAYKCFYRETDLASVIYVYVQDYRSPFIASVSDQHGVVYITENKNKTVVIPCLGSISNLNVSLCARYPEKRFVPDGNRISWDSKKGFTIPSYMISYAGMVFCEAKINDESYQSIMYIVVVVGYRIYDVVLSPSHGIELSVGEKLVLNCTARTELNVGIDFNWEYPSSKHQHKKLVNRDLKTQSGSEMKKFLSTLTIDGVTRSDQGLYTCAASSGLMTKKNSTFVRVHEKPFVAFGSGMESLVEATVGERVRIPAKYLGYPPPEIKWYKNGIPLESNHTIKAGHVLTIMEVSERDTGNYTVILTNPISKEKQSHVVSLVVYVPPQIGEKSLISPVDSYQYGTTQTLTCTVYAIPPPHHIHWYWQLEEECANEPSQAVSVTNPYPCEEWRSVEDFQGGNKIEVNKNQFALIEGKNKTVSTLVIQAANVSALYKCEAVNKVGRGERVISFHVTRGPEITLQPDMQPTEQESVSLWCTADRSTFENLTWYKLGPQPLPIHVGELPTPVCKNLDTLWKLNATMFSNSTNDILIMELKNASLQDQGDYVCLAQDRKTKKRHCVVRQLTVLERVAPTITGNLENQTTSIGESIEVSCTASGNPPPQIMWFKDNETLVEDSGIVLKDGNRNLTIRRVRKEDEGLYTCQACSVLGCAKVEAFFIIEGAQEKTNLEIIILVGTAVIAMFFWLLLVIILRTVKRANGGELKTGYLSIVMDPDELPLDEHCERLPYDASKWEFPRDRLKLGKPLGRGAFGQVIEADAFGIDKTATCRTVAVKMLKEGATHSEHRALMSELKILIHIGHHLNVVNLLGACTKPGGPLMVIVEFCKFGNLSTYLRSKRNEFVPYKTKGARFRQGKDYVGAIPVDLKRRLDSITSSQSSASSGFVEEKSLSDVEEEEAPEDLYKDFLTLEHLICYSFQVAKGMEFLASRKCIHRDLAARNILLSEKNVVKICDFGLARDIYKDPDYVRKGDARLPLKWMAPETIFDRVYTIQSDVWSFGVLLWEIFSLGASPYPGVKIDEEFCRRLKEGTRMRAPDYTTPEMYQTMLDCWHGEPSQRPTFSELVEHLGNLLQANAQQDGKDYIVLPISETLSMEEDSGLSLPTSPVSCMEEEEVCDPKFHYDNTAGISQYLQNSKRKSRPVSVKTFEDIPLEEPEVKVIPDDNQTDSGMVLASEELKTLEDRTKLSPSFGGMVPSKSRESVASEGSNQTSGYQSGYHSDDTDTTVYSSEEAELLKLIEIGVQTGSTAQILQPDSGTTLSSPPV
T1 sequence (P22607 23-806): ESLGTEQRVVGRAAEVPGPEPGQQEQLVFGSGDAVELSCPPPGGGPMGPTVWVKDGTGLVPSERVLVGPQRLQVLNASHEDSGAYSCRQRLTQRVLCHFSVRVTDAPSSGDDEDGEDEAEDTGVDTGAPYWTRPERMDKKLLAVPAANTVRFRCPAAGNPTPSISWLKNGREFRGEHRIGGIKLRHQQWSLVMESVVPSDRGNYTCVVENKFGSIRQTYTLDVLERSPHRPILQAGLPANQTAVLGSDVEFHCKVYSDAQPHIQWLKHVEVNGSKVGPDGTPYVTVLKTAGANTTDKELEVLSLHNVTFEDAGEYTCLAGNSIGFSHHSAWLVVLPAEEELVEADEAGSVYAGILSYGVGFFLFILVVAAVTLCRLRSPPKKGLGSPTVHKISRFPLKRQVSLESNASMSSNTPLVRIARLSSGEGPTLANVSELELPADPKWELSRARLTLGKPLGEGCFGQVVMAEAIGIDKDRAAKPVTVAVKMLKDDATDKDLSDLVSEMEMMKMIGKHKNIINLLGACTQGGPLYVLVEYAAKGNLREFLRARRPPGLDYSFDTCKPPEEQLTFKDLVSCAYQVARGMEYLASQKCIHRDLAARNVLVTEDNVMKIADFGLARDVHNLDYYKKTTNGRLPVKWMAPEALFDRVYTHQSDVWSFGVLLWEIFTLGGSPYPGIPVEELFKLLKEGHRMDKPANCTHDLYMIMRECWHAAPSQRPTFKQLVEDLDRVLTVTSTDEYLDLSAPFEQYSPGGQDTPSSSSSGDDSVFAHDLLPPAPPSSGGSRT

For the compound `CCOc1cc(NC(=O)NCC(F)(F)F)cc(-c2cnc3cc(-c4nnc(C)o4)ccn23)c1` [Compound F-15, 1-{3-Ethoxy-5-[7-(5-methyl-[1,3,4]oxadiazol-2-yl)-imidazo[1,2-a]pyridin-3-yl]-phenyl}-3-(2,2,2-trifluoro-ethyl)-urea], the IC50 was determined as 0.025 µM on FGFR3 and 0.34 µM on VEGFR2. Besides, the inhibition at 10 µM in assay [1] (Mus musculus, BaF3, 72 h) was 23%. Also, the GI50 on Ba/F3-TEL-FGFR3 cells is 0.37 µM. For the same compound, the minimal effective concentration in assay [2] is 10 µM.

In the case of `CCOc1cc(NC(=O)NCC(F)(F)F)cc(-c2cnc3cc(-c4ccnc(C(F)(F)F)n4)ccn23)c1` [Compound F-16, 1-{3-Ethoxy-5-[7-(2-trifluoromethyl-pyrimidin-4-yl)-imidazo[1,2-a]pyridin-3-yl]-phenyl}-3-(2,2,2-trifluoro-ethyl)-urea], the IC50 came out at 0.027 µM on FGFR3 and 0.4 µM on VEGFR2. The inhibition at 10 µM in assay [1] (Mus musculus, BaF3, 72 h) turned out to be 32%. Further, at Ba/F3-TEL-FGFR3 cells, the GI50 came to 0.47 µM. For the same compound, the minimal effective concentration in assay [2] is > 10 µM.

As to `CC(C)Oc1cc(NC(=O)NCC(F)(F)F)cc(-c2cnc3cc(OCCO)ccn23)c1` [Compound F-17, 1-{3-[7-(2-Hydroxy-ethoxy)-imidazo[1,2-a]pyridin-3-yl]-5-isopropoxy-phenyl}-3-(2,2,2-trifluoro-ethyl)-urea], the IC50 was determined as 0.017 µM at FGFR3 and 0.51 µM at VEGFR2. The inhibition at 10 µM in assay [1] (Mus musculus, BaF3, 72 h) was 0%. Also, the GI50 at Ba/F3-TEL-FGFR3 cells was 0.5 µM. Further, the minimal effective concentration in assay [2] came out at 3 µM.

As for `CC(C)Oc1cc(NC(=O)NCC(F)(F)F)cc(-c2cnc3cc(OCCCO)ccn23)c1` [Compound F-18, 1-{3-[7-(3-Hydroxy-propoxy)-imidazo[1,2-a]pyridin-3-yl]-5-isopropoxy-phenyl}-3-(2,2,2-trifluoro-ethyl)-urea], the IC50 came to 0.02 µM at FGFR3 and 0.67 µM at VEGFR2. Moreover, in assay [1] (Mus musculus, BaF3, 72 h), the inhibition at 10 µM came to 54%. Moreover, the GI50 on Ba/F3-TEL-FGFR3 cells turned out to be 0.44 µM. For the same compound, the minimal effective concentration in assay [2] turned out to be 5 µM.

As for `CC(C)Oc1cc(NC(=O)NCC(F)(F)F)cc(-c2cnc3cc(-c4nncs4)ccn23)c1.Cl` [Compound F-19, 1-[3-Isopropoxy-5-(7-[1,3,4]thiadiazol-2-yl-imidazo[1,2-a]pyridin-3-yl)-phenyl]-3-(2,2,2-trifluoro-ethyl)-urea], the IC50 on FGFR3 is 0.00247 µM; at VEGFR2 it was 0.092 µM. Moreover, in assay [1] (Mus musculus, BaF3, 72 h, % at 1.00 μM), the inhibition at 1 µM turned out to be 0%. Moreover, on Ba/F3-TEL-FGFR3 cells, the GI50 stood at 0.042 µM. In addition, the minimal effective concentration in assay [2] was determined as 3 µM.

With `Cc1nnc(-c2ccn3c(-c4cc(NC(=O)NCC(F)(F)F)cc(OC(C)C)c4)cnc3c2)s1.Cl` [Compound F-20, 1-{3-Isopropoxy-5-[7-(5-methyl-[1,3,4]thiadiazol-2-yl)-imidazo[1,2-a]pyridin-3-yl]-phenyl}-3-(2,2,2-trifluoro-ethyl)-urea], the IC50 on FGFR3 amounted to 0.00096 µM; at VEGFR2, 0.029 µM. Further, in assay [1] (Mus musculus, BaF3, 72 h), the inhibition at 3 µM stood at 0%. The GI50 on Ba/F3-TEL-FGFR3 cells amounted to 0.009 µM. For the same compound, in assay [2], the minimal effective concentration is 0.1 µM.

On to `CCNC(=O)Nc1cc(OC(C)C)cc(-c2cnc3cc(-c4nnc(C)s4)ccn23)c1` [Compound F-23, 1-Ethyl-3-{3-isopropoxy-5-[7-(5-methyl-[1,3,4]thiadiazol-2-yl)-imidazo[1,2-a]pyridin-3-yl]-phenyl}-urea], for which the IC50 on FGFR3 amounted to 0.004 µM; on VEGFR2, 0.087 µM. The inhibition at 10 µM in assay [1] (Mus musculus, BaF3, 72 h) worked out at 5%. Besides, the GI50 at Ba/F3-TEL-FGFR3 cells was 0.05 µM. Moreover, in assay [2], the minimal effective concentration amounted to 5 µM.

In the case of `CC(C)Oc1cc(NC(=O)NCC(F)(F)F)cc(-c2cnc3cc(-c4nccc(C(C)(C)CO)n4)ccn23)c1` [Compound F-27, 1-(3-{7-[4-(2-Hydroxy-1,1-dimethylethyl)-pyrimidin-2-yl]-imidazo[1,2-a]pyridin-3-yl}-5-isopropoxy-phenyl)-3-(2,2,2-trifluoro-ethyl)-urea], the IC50 came out at 0.042 µM on FGFR3 and 1.2 µM at VEGFR2. In assay [1] (Mus musculus, BaF3, 72 h), the inhibition at 3 µM was 50%. The GI50 on Ba/F3-TEL-FGFR3 cells came to 1.58 µM. Also, the minimal effective concentration in assay [2] is > 10 µM.

For `Cc1cn(-c2ccn3c(-c4cc(NC(=O)NCC(F)(F)F)cc(OC(C)C)c4)cnc3c2)cn1` [Compound F-28, 1-{3-Isopropoxy-5-[7-(4-methylimidazol-1-yl)-imidazo[1,2-a]pyridin-3-yl]-phenyl}-3-(2,2,2-trifluoro-ethyl)-urea], the IC50 turned out to be 0.0016 µM on FGFR3 and 0.077 µM on VEGFR2. Further, the inhibition at 10 µM in assay [1] (Mus musculus, BaF3, 72 h) came out at 73%. Further, the GI50 on Ba/F3-TEL-FGFR3 cells was found to be 0.1 µM. Besides, the minimal effective concentration in assay [2] stood at 5 µM.

As for `CC(C)Oc1cc(NC(=O)NCC(F)(F)F)cc(-c2cnc3cc(-c4nccc(C(C)C)n4)ccn23)c1` [Compound F-29, 1-{3-Isopropoxy-5-[7-(4-isopropyl-pyrimidin-2-yl)-imidazo[1,2-a]pyridin-3-yl]-phenyl}-3-(2,2,2-trifluoroethyl)-urea], the IC50 at FGFR3 turned out to be 0.092 µM; in assay [1] (BaF3, 72 hours, with mouse IL-3) it was 3.98 µM. Also, at VEGFR2 (1 h, % I at 10 μM), the inhibition at 10 µM was 53%. In addition, on Ba/F3-TEL-FGFR3 cells, the GI50 is 3.16 µM. Moreover, the minimal effective concentration in assay [2] is > 10 µM.
